Experimental data from patent US20210017607A1, “Methods of Predicting Responsiveness to Cancer Therapies” (The University of Chicago, priority 2019, published 2021).

Key:
[1] = system: B6-Myc (STING^hi) tumors; experiment: B6-Myc syngeneic tumor growth; assay type: in vivo, mouse; conditions: immunocompetent syngeneic mice
Source text: Tumor volume curves for duration of treatment are shown. […] Data are represented relative to CD45+ immune cells.
Tumor volume curves for duration of treatment are shown.

[2] = system: Myc-CAP (STING^lo) cells; experiment: Annexin V-PI viability assay; assay type: cell-based, mouse; conditions: rucaparib 500 nM, buparlisib 1 μM, singly and in combination
Source text: FIGS. 29A-29M. PARPi alone induces DNA DSBs, but not apoptosis even in combination with PI3Ki in Myc-CAP (STING^lo) cancer cells; PARPi/PI3Ki combination induces intracellular DNA DSBs and proportionate release of MV surface-associated DNA DSBs from B6-Myc (STINGhi) cancer cells without affecting cellular viability; PARPi/PI3K treatment activates tumor-cell extrinsic cGAS/STING pathway within TAMs in vivo via MV surface-associated DNA DSBs released from tumor cells. Myc-CAP cancer cells were treated with the indicated drugs singly or in combination for 36 hours. (29A) Cells were stained with anti-mouse specific p-γH2AX antibody and a fluorescently labeled secondary antibody for determination of DNA DSBs, which were quantified by confocal microscopy. (29B) Protein extracts from cells in 29A were analyzed for the indicated pharmacodynamic biomarkers by western blotting; (29C) Annexin V-PI staining was done to assess frequency of live cells (Annexin V^− PI^−) following drug treatment. (29D) Ultracentrifugation was utilized to purify microvesicles (MVs) from supernatants in treatment groups in (29A) and associated DNA DSBs was quantified by Nanodrop®. Independent experiments n=2. (29E) Ultracentrifugation was utilized to purify MVs from supernatants in indicated treatment groups in FIG. 17A, and associated DNA DSBs were quantified by Nanodrop®; n=2 independent experiments. […]

[3] = system: Myc-CAP (STING^lo) tumors; experiment: Myc-CAP syngeneic tumor growth; assay type: in vivo, mouse; conditions: immunocompetent syngeneic mice
Protocol: FIGS. 25A and 25B. […] (25A-25B) Myc-CAP (STING^lo) tumor-bearing syngeneic mice were treated with the indicated drug(s) until untreated tumors reached approx. 2500 mm^3. Tumor volume curves for duration of treatment are shown.
FIGS. 26A-26D. […] Immunodeficient athymic nude (26A) and NOD-SCID (26B) mice were engrafted with Myc-CAP (STING^lo) tumors and treated with the indicated drug(s) until untreated tumors reached approx. 2000 mm^3. Tumor volume curves for duration of treatment are shown. For 26A-26B, n=3-4 mice per group. (26C-26D) Single-cell suspensions were generated from harvested tumors and analyzed by flow cytometry for the indicated immune cell populations and their activation states. Data are represented relative to CD45+ immune cells. For 26C-26D, n=3-5 animals per treatment group from 2 independent experiments. Significance/p-values were calculated by […].
FIGS. 29A-29M. […] Myc-CAP cancer cells were treated with the indicated drugs singly or in combination for 36 hours. (29A) Cells were stained with anti-mouse specific p-γH2AX antibody and a fluorescently labeled secondary antibody for determination of DNA DSBs, which were quantified by confocal microscopy. (29B) Protein extracts from cells in 29A were analyzed for the indicated pharmacodynamic biomarkers by western blotting; (29C) Annexin V-PI staining was done to assess frequency of live cells (Annexin V^− PI^−) following drug treatment. (29D) Ultracentrifugation was utilized to purify microvesicles (MVs) from supernatants in treatment groups in (29A) and associated DNA DSBs was quantified by Nanodrop®. Independent experiments n=2. (29E) Ultracentrifugation was utilized to purify MVs from supernatants in indicated treatment groups in FIG. 17A, and associated DNA DSBs were quantified by Nanodrop®; n=2 independent experiments. (29F) Syngeneic mice were engrafted with Myc-CAP (STING^lo) cells, and tumors were harvested when the tumor volume reached 400 mm^3. Single cell suspensions of the tumors were treated with the indicated drug(s), in the presence or absence of GW4869 (MV biogenesis inhibitor). (29G) Bone marrow derived macrophage (BMDMs) were co-cultured for 30 hours with supernatants (−/+ exogenous 50 units of DNase I pre-treatment for 30 minutes) from Myc-CAP cells that were treated with the indicated drug(s) for 36 hours. (29H) cGAMP (10 μg/mL) was pre-incubated with 10 units of DNAse I or mock control for 30 minutes and then added to BMDMs for 30 hours. (29I-29L) STING^+/+/STING^−/− BMDMs were co-cultured for 36 hours with supernatants from Myc-CAP and B6-Myc cancer cells that were treated with the indicated drug(s) for 36 hours. Supernatants were collected from 29F-29L at the end of treatment and analyzed for IFNβ1 by ELISA. (29M) Myc-CAP (STING^lo) tumor-bearing mice were treated with the indicated drug(s) until tumors first reached approx. 2500 mm^3. For the degerelix/rucaparib/buparlisib combination, additional cohorts of mice underwent concomitant treatment with STING antagonist H-151 or GW4869. Tumor volume was recorded daily for duration of experiment. For in vitro experiments, n=2 independent experiments and for in vivo experiments n=3-4 animals /group.

With Cc1ccc2c(=O)c3cccc(CC(=O)O)c3oc2c1C [DMXAA, 5,6-Dimethylxanthenone-4-acetic Acid] the tumor growth response [1] was “phenocopied”.
With Nc1cc(C(F)(F)F)c(-c2cc(N3CCOCC3)nc(N3CCOCC3)n2)cn1 [buparlisib] the viability of cells [2] was “no change in the viability” and the tumor growth response [3] was “not observed”.
For CNCc1ccc(-c2[nH]c3cc(F)cc4c3c2CCNC4=O)cc1 [rucaparib], the tumor growth response [1] was “de novo resistance”, the viability of cells [2] was “no change in the viability” and the tumor growth response [3] was “not observed”.
